Read-outs that look alike come from different tables or passages of the source.
Experiments:
Dipole moment = format: physicochemical; conditions: 40° C.
Surface tension = format: physicochemical
mammals = conditions: in vivo; cited from earlier work
[1] = Hansen Solubility Parameters of JEFFSOL brand alkylene carbonates
rabbits = conditions: undiluted; cited from earlier work
dogs = conditions: 21-day test; cited from earlier work
guinea pigs = conditions: 21-day test; cited from earlier work
[2] = system: Rat Hepatocyte Primary Culture; conditions: Rat Hepatocyte Primary Culture/DNA Repair Test; cited from earlier work
skin = conditions: neat; cited from earlier work
[3] = criteria promulgated by the European Union; cited from earlier work
[4] = system: activated sludge bacteria taken from a wastewater treatment plant; conditions: 7 day test at 300 ppm; cited from earlier work
[5] = cited from earlier work
velvetleaf = experiment: Bioefficacy testing with glyphosate, velvetleaf control; format: in vivo
Description: (§1) The adjuvancy of alkylene carbonates with glyphosate was then tested. Bioefficacy testing was conducted on lambsquarters and velvetleaf weeds. The mono-isopropylamine salt of glyphosate was applied to velvetleaf and lambsquarters weeds at 0.25 lb ae/acre, and the adjuvant mixtures were present at 0.1 v/v%. The spray volume was 20 gal/acre, and application was made at 25 psig.
(§2) Evaluations, with the same adjuvant mixtures listed above, were also made with ammonium sulfate (AMS) at 17 lb/100 gallons water carrier. For control purposes, a group of plants was not treated with any glyphosate, and another group of plants was treated with only glyphosate.
(§3) The two alkylene carbonate blends of PC and BC were compared to diethylene glycol (DEG) as a standard solvent in combination with two different nonionic surfactant systems. One surfactant system was a SURFONIC® N-95 alkyl phenol ethoxylate, and the second surfactant system was a SURFONIC® DDA-8 branched alcohol ethoxylate. (SURFONIC® brand ethoxylates are commercially available from Huntsman Petrochemical Corporation, Houston, Tex.).
(§4) The results are expressed in terms of percent control, where 0% represents no plant necrosis, and 100% represents complete plant necrosis.

lambsquarters = experiment: Bioefficacy testing with glyphosate, lambsquarters control; format: in vivo
Description: as §1, §2, §3, §4

[6] = free acid form; cited from earlier work

Row | Structure (SMILES) | Dipole Moment (Dipole moment) [Debyes] | Surface Tension (Surface tension; 25° C. (* = supercooled)) | Surface Tension (Surface tension; 40° C.) [dynes/cm] | toxicity towards mammals (mammals) | Hansen Sol Par, dispersive [1] [cal^1/2 cm^−3/2] | Hansen Sol Par, hydrogen bonding [1] [cal^1/2 cm^−3/2] | Hansen Sol Par, polar [1] [cal^1/2 cm^−3/2] | Hansen Sol Par, total [1] [cal^1/2 cm ^−3/2] | also measured
1 | CCC1COC(=O)O1 (stereo not drawn) [BC, 1,2-butylene carbonate] | 5.28 | 38.1 dynes/cm | 37.0 | relatively low toxicity | 8.3 | 4.8 | 3.0 | 10.0 | 
2 | CC1COC(=O)O1 (stereo not drawn) [PC, propylene carbonate] | 4.98 | 40.9 dynes/cm | 39.6 | relatively low toxicity | 9.8 | 2.0 | 8.8 | 13.3 | LD50 (rabbits): > 20 mL/kg; toxicity by inhalation (dogs): non-toxic; toxicity by inhalation (guinea pigs): non-toxic; genotoxicity [2]: negative; skin irritation (skin): moderate skin irritation; biodegradability [3]: very readily biodegradable; adverse effects on activated sludge bacteria [4]: did not show adverse effects
3 | O=C1OCCO1 [EC, ethylene carbonate] | 4.80 | 44.0* dynes/cm | 42.2 |  |  |  |  |  | 
4 | CNC(=O)CSP(=S)(OC)OC [Cygon, dimethoate] |  |  |  |  |  |  |  |  | time to lose 50 percent of pest control power ([5]; mixed in water of pH 9): 48 min; time to lose 50 percent of pest control power ([5]; pH of 6): 720 min
5 | O=C(O)CNCP(=O)(O)O [glyphosate, N-phosphonomethylglycine, reference compound] |  |  |  |  |  |  |  |  | velvetleaf control (necrosis), overall (velvetleaf; FIG. 1, glyphosate IPA salt 0.25 lb ae/acre, adjuvant 0.1 v/v%, no AMS): very little observed necrosis; lambsquarters control (necrosis/kill), overall (lambsquarters; FIG. 3, glyphosate 0.25 lb ae/acre, adjuvant 0.1 v/v%, no AMS): very little observed necrosis; water solubility [6]: low water solubility
6 | N.N.O=S(=O)(O)O [AMS, ammonium sulfate] |  |  |  |  |  |  |  |  | velvetleaf necrosis, overall (velvetleaf; FIG. 2, glyphosate with AMS 17 lb/100 gallons): dramatically increases velvetleaf necrosis; lambsquarters control, overall efficacy (lambsquarters; FIG. 4, glyphosate with AMS 17 lb/100 gallons): does not produce the dramatic improved efficacy
